For two compounds, IC50 results are on record in patent publication US20250270198A1, “PYRIDONE COMPOUNDS AS TRPA1 INHIBITORS” (D. E. Shaw Research, LLC, priority 2022, published 2025).

One test deals with hERG channel (Homo sapiens (Human), UniProt Q12809). As to the kind of experiment: hERG activity, automated patch clamp (SyncroPatch). The test is classed as cell-based. The note with it: CHO-K1 cells stably expressing hERG; tail current at −50 mV; compounds at 50 μM and 100 μM; Table 5. The protocol: This assay was used to evaluate the disclosed compounds' inhibition activities against the hERG channel.
hERG channel, sequence (Q12809 whole entry): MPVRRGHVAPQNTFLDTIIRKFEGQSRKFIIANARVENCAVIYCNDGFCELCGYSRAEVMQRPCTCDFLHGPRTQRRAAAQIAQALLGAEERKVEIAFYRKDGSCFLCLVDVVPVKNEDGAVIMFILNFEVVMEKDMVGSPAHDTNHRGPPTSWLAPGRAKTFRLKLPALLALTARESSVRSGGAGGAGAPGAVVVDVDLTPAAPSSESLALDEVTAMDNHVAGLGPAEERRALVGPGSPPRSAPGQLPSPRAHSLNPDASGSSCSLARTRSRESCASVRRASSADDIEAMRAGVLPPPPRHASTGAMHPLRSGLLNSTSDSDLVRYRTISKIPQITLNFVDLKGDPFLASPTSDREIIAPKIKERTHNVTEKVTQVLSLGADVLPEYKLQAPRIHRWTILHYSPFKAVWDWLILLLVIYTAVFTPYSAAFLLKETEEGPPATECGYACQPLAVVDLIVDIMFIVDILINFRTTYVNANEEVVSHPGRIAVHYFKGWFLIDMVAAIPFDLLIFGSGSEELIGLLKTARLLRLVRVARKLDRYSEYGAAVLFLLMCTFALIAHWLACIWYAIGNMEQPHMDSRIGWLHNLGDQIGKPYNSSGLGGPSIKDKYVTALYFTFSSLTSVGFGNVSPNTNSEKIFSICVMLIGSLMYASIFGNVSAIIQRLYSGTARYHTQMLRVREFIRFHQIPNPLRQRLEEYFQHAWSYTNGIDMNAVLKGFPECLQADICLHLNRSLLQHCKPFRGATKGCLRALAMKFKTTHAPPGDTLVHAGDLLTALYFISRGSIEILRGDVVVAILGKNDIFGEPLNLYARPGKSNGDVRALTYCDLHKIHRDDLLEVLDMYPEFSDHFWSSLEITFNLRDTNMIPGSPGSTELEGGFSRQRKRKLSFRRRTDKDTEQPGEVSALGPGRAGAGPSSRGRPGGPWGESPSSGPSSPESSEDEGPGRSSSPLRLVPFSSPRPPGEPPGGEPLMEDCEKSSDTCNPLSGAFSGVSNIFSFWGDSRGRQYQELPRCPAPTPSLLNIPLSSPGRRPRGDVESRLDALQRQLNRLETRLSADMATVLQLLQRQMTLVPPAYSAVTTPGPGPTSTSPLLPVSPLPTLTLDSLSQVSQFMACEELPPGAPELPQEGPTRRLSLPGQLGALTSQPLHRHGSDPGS
CHO-K1 cells stably expressing hERG were grown in Ham's F-12 Medium with Glutamine containing 10% heat-inactivated FBS, 1% Penicillin/Streptomycin, Hygromycin (100 μg/ml), and G418 (100 μg/ml). Cells used for electrophysiology were plated in plastic culture flasks and grown at 37° C. in a 5% CO2-humidified incubator per ChanPharm SOP. Stocks were maintained in cryogenic storage.
The cells were bathed in an extracellular solution containing 140 mM NaCl, 4 mM KCl, 2 mM CaCl2), 1 mM MgCl2, 5 mM Glucose, and 10 mM HEPES; pH adjusted to 7.4 with NaOH; 295-305 mOsm. The internal solution contained 10 mM KCl, 110 mM KF, 10 mM NaCl, 10 mM EGTA, 10 mM HEPES; pH adjusted to 7.2 with KOH; 280-285 mOsm. All compounds were dissolved in DMSO at 30 mM. Compound stock solutions were freshly diluted with external solution to concentrations of 50 μM and 100 μM. The highest content of DMSO […].
All experiments were performed at room temperature. Each cell acted as its own control. In preparation for a recording session, intracellular solution (see above) was loaded into the intracellular compartments of the automated patch clamp platform SyncroPatch (Nanion) chip and the cell suspension was pipetted into the extracellular compartments. After establishment of a whole-cell configuration, membrane current recordings, and compound application were enabled by means of the SyncroPatch. hERG currents were elicited by a voltage pulse pattern with fixed amplitudes (depolarization: +20 mV amplitude, 300 ms duration; repolarization: −50 mV, 300 ms duration) repeated at 3 s intervals from a holding potential of −80 mV.
Data acquisition and analysis were performed using DataControl384 (Nanion's proprietary software). To determine the (percentage) inhibition, the last single pulse in the pulse train (i.e., the repolarization step to −50 mV; tail current) at a given compound concentration was used. AUC and peak values, obtained in the presence of compound, were normalized to control values in the absence of compound.
(In general: The hERG channel carries a current that helps repolarise heart muscle cells.)

In the next test the target is human TRPA1 channel (Homo sapiens (Human), UniProt O75762). Description: TRPA1 inhibitor activity, automated patch clamp (SyncroPatch). It is filed as cell-based. The note with it: CHO cells inducibly expressing human TRPA1; currents elicited by carvacrol (300 μM), holding potential −60 mV; Table 5. The protocol:
This assay was used to evaluate the disclosed compounds' inhibition activities against the human TRPA1 channel.
CHO cells inducibly expressing human TRPA1 were grown in DMEM containing 10% heat-inactivated FBS, 1 mM Sodium Pyruvate, 2 mM L-Glutamine, Zeocin (100 μg/ml) and Blasticidin (10 μg/ml). Expression was induced by addition of Doxycycline (1 μg/ml) 24 hours before experiments. Cells used for electrophysiology were plated in plastic culture flasks and grown at 37° C. in a 5% CO2-humidified tissue culture incubator per ChanPharm SOP. Stocks were maintained in cryogenic storage.
The cells were bathed in an extracellular solution containing 80 mM NaCl, 60 mM NMDG, 4 mM KCl, 2 mM CaCl2), 6 mM MgCl2, 5 mM Glucose. 10 mM HEPES, 3 mM HEDTA; pH adjusted to 7.4 with NaOH; 305-310 mOsm. All compounds were dissolved in DMSO at 30 mM. The internal solution contained 10 mM CsCl, 110 mM CsF, 10 mM NaCl, 10 mM EGTA, 10 mM HEPES, 4 mM MgATP, 0.25 mM NaGTP, 4 mM BAPTA; pH adjusted to 7.2 with CsOH; 285-290 mOsm. Compound stock solutions were freshly diluted with external solution to concentrations of 3 nM, 10 nM 30 nM, 100 nM, 300 nM, 1 μM, 3 μM, 10 μM, and 30 μM. The highest content of DMSO (0.1%) was present at 30 μM.
All experiments were performed at room temperature. Each cell acted as its own control. In preparation for a current recording session, intracellular solution (see above) was loaded into the intracellular compartments of the automated patch clamp platform SyncroPatch (Nanion) chip and the cell suspension was pipetted into the extracellular compartments. After establishment of a whole-cell configuration, membrane current recordings and compound application were enabled by means of the SyncroPatch. TRPA1 currents were elicited by application of carvacrol (300 μM) at a constant holding potential of −60 mV (see Table A below).
To determine IC50 values, AUC and peak values, obtained in the presence of a given compound concentration, were normalized to control values in absence of compound. Using DataControl384 (Nanion's proprietary software), IC50 values were derived by fitting the normalized data to the Hill equation.
For orientation: In patch-clamp work, channel activity is measured electrically.

human TRPA1 channel, sequence (O75762 whole entry): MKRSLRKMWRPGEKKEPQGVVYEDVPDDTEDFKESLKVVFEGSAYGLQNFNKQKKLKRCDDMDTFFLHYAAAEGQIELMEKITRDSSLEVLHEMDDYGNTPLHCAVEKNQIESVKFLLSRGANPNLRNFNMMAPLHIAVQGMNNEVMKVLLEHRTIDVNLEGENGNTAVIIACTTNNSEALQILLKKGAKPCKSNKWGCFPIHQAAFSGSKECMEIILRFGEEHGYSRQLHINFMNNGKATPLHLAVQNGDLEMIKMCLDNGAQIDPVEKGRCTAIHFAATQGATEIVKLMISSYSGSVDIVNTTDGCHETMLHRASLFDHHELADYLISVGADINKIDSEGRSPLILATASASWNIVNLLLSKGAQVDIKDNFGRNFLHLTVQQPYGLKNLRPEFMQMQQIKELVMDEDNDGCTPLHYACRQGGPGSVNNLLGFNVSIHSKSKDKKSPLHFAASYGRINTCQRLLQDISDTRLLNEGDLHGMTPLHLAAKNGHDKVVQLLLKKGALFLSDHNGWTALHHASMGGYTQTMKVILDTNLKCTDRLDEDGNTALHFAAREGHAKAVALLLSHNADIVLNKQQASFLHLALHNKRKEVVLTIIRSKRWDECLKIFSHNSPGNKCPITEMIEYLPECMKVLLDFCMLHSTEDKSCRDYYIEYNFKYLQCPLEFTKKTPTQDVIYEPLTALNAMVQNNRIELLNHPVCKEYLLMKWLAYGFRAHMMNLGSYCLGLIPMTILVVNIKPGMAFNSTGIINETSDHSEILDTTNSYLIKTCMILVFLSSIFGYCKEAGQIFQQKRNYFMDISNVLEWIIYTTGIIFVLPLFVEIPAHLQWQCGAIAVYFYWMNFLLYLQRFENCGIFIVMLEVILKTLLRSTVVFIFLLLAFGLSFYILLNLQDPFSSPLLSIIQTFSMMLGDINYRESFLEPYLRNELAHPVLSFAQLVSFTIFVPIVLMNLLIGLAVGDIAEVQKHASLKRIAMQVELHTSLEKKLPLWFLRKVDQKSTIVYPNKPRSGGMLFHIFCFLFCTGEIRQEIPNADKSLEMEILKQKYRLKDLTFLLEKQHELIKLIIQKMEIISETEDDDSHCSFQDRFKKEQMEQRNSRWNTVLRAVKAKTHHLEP

In general, IC50 refers to the midpoint of a concentration-inhibition curve. Read a low IC50 as greater potency. As to `Nc1ncc(Cl)c(=O)n1Cc1nc(C[C@H](O)c2ccc(Cl)cc2)no1` [Compound 71, (S)-2-amino-5-chloro-3-((3-(2-(4-chlorophenyl)-2-hydroxyethyl)-1,2,4-oxadiazol-5-yl)methyl)pyrimidin-4(3H)-one], the figures for the IC50 against hERG channel and at human TRPA1 channel were over 50 µM and under 0.1 µM, respectively.
For `O=c1c(Cl)cnc(CO)n1Cc1nc(C[C@H](O)c2ccc(Cl)cc2)no1` [Compound 73, (S)-5-chloro-3-((3-(2-(4-chlorophenyl)-2-hydroxyethyl)-1,2,4-oxadiazol-5-yl)methyl)-2-(hydroxymethyl)pyrimidin-4(3H)-one] the same measures were over 50 µM and under 0.1 µM.
